{"source": "paper PMC4853435", "about": "“A cell cycle kinase with tandem sensory PAS domains integrates cell fate cues” (Nature Communications, 2016)", "key": {"[1]": {"target": "T1, CckA 197–691 (ΔPAS-A) (Caulobacter vibrioides, UniProt A0A0H3C8Q4)", "T1 construct": "residues 197-691 (PAS-B, DHp, CA, RD), His-tagged, E. coli, Ni-NTA", "T1 sequence (A0A0H3C8Q4 197-691)": "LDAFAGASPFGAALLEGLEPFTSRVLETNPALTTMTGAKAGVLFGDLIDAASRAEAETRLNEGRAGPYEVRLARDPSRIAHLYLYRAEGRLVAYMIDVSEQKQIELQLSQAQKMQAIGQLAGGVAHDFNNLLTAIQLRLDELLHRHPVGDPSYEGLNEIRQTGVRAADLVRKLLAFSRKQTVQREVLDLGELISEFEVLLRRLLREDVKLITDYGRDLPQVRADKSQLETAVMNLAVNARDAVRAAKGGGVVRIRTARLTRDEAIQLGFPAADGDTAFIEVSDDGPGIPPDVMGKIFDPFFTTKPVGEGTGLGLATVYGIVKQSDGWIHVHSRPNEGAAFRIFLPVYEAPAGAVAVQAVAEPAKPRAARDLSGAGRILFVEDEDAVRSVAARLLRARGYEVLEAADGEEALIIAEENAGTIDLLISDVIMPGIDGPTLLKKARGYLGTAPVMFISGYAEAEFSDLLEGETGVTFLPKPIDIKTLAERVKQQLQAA", "assay": "autophosphorylation with [gamma-32P]ATP, nitrocellulose capture, phosphorimaging", "assay_type": "biochemical"}, "[2]": {"target": "T2, CckA 70–378 (ΔCA-ΔRD) (Caulobacter vibrioides, UniProt A0A0H3C8Q4)", "T2 construct": "residues 70-378 (PAS-A, PAS-B, DHp), His-tagged, E. coli, Ni-NTA; immobilised on SPR chip", "T2 sequence (A0A0H3C8Q4 70-378)": "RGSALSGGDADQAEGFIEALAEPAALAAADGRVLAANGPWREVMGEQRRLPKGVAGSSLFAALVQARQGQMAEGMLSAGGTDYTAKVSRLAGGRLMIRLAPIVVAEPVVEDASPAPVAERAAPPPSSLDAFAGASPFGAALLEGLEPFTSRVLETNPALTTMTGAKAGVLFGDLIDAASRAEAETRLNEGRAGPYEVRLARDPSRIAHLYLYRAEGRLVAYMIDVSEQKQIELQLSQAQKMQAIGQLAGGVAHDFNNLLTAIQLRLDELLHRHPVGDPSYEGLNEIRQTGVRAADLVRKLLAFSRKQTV", "assay": "SPR (Biacore T200, CckA variant amine-coupled to CM5 chip)", "assay_type": "binding", "conditions": "50 mM HEPES pH 8, 200 mM KCl, 5 mM MgCl2, 25 °C"}, "[3]": {"target": "T3, CckA 70–295 (ΔDHp-ΔCA-ΔRD) (Caulobacter vibrioides, UniProt A0A0H3C8Q4)", "T3 construct": "residues 70-295 (PAS-A, PAS-B), pJAB41 in pET28b(+), His-tagged, E. coli, Ni-NTA; immobilised on SPR chip", "T3 sequence (A0A0H3C8Q4 70-295)": "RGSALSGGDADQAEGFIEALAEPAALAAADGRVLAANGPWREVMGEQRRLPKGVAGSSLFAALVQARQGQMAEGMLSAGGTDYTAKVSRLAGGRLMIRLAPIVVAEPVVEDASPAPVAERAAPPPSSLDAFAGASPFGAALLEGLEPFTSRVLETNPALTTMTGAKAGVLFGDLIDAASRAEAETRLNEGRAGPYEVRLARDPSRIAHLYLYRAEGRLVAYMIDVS", "assay": "SPR (Biacore T200, CckA variant amine-coupled to CM5 chip)", "assay_type": "binding", "conditions": "50 mM HEPES pH 8, 200 mM KCl, 5 mM MgCl2, 25 °C"}, "[4]": {"target": "T4, CckA 197–544 (ΔPAS-A-ΔRD) (Caulobacter vibrioides, UniProt A0A0H3C8Q4)", "T4 construct": "residues 197-544 (PAS-B, DHp, CA), His-tagged, E. coli, Ni-NTA; immobilised on SPR chip", "T4 sequence (A0A0H3C8Q4 197-544)": "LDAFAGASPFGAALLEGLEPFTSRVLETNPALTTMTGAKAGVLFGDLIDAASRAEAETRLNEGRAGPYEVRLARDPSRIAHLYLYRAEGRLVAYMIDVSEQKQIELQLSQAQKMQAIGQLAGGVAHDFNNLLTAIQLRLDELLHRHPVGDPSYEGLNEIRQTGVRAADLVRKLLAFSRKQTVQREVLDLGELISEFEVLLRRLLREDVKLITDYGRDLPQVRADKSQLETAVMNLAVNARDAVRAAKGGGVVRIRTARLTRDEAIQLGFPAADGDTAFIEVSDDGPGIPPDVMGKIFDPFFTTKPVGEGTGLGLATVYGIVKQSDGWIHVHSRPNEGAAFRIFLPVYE", "assay": "SPR (Biacore T200, CckA variant amine-coupled to CM5 chip)", "assay_type": "binding", "conditions": "50 mM HEPES pH 8, 200 mM KCl, 5 mM MgCl2, 25 °C"}, "[5]": {"target": "T5, CckA 70–544 (ΔRD) (Caulobacter vibrioides, UniProt A0A0H3C8Q4)", "T5 construct": "residues 70-544 (PAS-A, PAS-B, DHp, CA), receiver domain removed, His-tagged, E. coli, Ni-NTA; immobilised on SPR chip", "T5 sequence (A0A0H3C8Q4 70-544)": "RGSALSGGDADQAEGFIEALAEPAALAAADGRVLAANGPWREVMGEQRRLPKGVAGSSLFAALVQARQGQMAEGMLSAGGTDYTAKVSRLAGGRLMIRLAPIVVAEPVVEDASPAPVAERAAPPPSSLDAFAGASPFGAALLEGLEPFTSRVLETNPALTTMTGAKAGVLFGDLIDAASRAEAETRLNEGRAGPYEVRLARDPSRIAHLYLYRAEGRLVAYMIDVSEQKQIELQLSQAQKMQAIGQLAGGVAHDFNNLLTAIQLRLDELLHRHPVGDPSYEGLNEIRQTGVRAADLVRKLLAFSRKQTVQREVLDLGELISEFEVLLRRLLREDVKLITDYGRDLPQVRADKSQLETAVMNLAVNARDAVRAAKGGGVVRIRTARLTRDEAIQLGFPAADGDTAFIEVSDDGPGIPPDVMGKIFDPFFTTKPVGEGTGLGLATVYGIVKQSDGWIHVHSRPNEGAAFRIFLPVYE", "assay": "SPR (Biacore T200, CckA variant amine-coupled to CM5 chip)", "assay_type": "binding", "conditions": "50 mM HEPES pH 8, 200 mM KCl, 5 mM MgCl2, 25 °C"}, "[6]": {"target": "T6, CckA 70–691 (WT) (Caulobacter vibrioides, UniProt A0A0H3C8Q4)", "T6 construct": "cytosolic region 70-691 (PAS-A, PAS-B, DHp, CA, RD), transmembrane helices removed, N-terminal His6 tag, E. coli, Ni-NTA", "T6 sequence (A0A0H3C8Q4 70-691)": "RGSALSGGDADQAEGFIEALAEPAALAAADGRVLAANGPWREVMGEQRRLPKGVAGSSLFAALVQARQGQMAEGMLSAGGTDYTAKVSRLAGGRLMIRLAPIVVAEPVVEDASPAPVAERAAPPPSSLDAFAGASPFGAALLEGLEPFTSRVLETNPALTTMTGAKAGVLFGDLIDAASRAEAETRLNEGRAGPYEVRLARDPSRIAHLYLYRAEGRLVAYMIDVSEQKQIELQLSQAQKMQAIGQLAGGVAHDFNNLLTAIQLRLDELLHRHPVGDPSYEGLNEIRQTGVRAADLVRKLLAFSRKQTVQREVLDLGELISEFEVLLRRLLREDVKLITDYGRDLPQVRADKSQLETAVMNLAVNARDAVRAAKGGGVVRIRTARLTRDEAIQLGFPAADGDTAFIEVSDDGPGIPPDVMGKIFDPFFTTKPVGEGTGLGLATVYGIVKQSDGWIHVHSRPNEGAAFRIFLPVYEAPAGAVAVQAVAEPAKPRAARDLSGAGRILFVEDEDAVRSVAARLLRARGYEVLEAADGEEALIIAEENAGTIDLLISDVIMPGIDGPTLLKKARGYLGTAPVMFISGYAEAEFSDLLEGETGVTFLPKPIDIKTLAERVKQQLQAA", "assay": "autophosphorylation with [gamma-32P]ATP, nitrocellulose capture, phosphorimaging", "assay_type": "biochemical"}}, "data": [{"smiles": "Nc1nc2c(ncn2[C@@H]2O[C@@H]3COP(=O)(O)O[C@H]4[C@@H](O)[C@H](n5cnc6c(=O)[nH]c(N)nc65)O[C@@H]4COP(=O)(O)O[C@H]3[C@H]2O)c(=O)[nH]1", "note": "[c-di-GMP]", "values": [{"measurement": "IC50", "setting": "[1]", "result": 22, "unit": "µM"}, {"measurement": "SPR (Biacore T200, CckA variant amine-coupled to CM5 chip)", "setting": "[2]", "result": "removal of the ATP-binding CA domain resulted in a minor reduction in c-di-GMP binding"}, {"measurement": "SPR (Biacore T200, CckA variant amine-coupled to CM5 chip)", "setting": "[3]", "result": "Each construct still displayed concentration dependence in response to c-di-GMP"}, {"measurement": "SPR (Biacore T200, CckA variant amine-coupled to CM5 chip)", "setting": "[4]", "result": "Each construct still displayed concentration dependence in response to c-di-GMP"}, {"measurement": "SPR (Biacore T200, CckA variant amine-coupled to CM5 chip)", "setting": "[5]", "result": "The concentration-dependent response we observed demonstrates that c-di-GMP directly binds CckA"}, {"measurement": "IC50", "setting": "[6]", "result": 27, "unit": "µM"}]}]}
